Reference: US20260159536A1, “AKR1C3-ACTIVATED DNA ALKYLATING AGENT, AND MEDICAL APPLICATION THEREOF” (ASCENTAWITS PHARMACEUTICALS, LTD., priority 2021, published 2026)

Columns and labels:
[1] = system: HuPrime model LI1005 human liver cancer; test: In vivo pharmacodynamics, liver cancer LI1005 PDX model; set-up: species or system BALB/c nude mice; details: for Tumor volume (x ± S): in mm³ (unit assumed)
SNU354 = test: Cytotoxicity on hepatocellular carcinoma cell line SNU354; format: cell-based
Description: If not otherwise specified, IC50 values were measured by the following experimental methods:
a) Cells were plated for 24 hours, and then the compounds acted singly. 99 μL of growth medium was supplemented per well, and then 1 μL of 200× compound was added, gently shaken to ensure uniform mixing, and then placed in a 37° C., 5% CO2 incubator.
b) The cell plate was placed in the incubator for 72 hours.
b) 100 μL of CTG reagent (CelltiterGlo kit) was added to each well, the plate was placed in a rapid oscillator and shaken for 2 minutes, and then placed at room temperature for 30 minutes away from light.
The IC50 was calculated using GraphPad Prism 8 software and the IC50 (half inhibitory concentration) of the compounds was obtained using the following non-linear fitting formula: […]
Using the same experimental methods as described above, Compounds A, B and C were further tested for cytotoxicity against different hepatocellular carcinoma (HCC) cell lines SNU354, SNU886, MHCC97H and huH-1, and the results were shown in Table 2 below: […]

[2] = system: human liver cancer LI6652; test: In vivo pharmacodynamics, liver cancer LI6652 subcutaneous xenograft PDX model; set-up: species or system BALB/c nude mice; details: 5 mg/kg i.p. QDx5, 2 days off, 2 weeks off, 2 cycles; Day 28
[3] = 1.25 mg/kg, QDx5, 2 days off, 2 weeks off, QDx5, i.p., Day 35
[4] = 2.5 mg/kg, QDx5, 2 days off, 2 weeks off, QDx5, i.p., Day 35
[5] = 5 mg/kg, QDx5, 2 days off, 2 weeks off, QDx5, i.p., Day 35
[6] = 10 mg/kg, QWx2, 1 week off, QWx2, i.v., Day 35

## O=[N+]([O-])c1ccc(C(OP(=O)(N2CC2)N2CC2)C(F)(F)F)cc1Oc1ccc(-c2ccc(F)cc2)c(F)c1 (racemic) [Compound A]
[1]; 1.25 mg/kg i.p., Day 28
  Tumor volume: 246.26 mm^3
[1]; 1.25 mg/kg i.p., Day 31
  Tumor volume: 282.93 mm^3
[1]; 1.25 mg/kg i.p., Day 35
  Tumor volume: 334.61 mm^3
[1]; [3]
  Relative tumor volume (x ± S): 3.28 ± 0.53
  T/C (%): 32.47%
  TGI (%): 67.53%
  Tumor volume (x ± S): 334.61 ± 61.24
[1]; 2.5 mg/kg i.p., Day 0
  Tumor volume: 103.02 mm^3
[1]; 2.5 mg/kg i.p., Day 3
  Tumor volume: 156.63 mm^3
[1]; 2.5 mg/kg i.p., Day 7
  Tumor volume: 197.27 mm^3
[1]; 2.5 mg/kg i.p., Day 10
  Tumor volume: 156.39 mm^3
[1]; 2.5 mg/kg i.p., Day 14
  Tumor volume: 147.34 mm^3
[1]; 2.5 mg/kg i.p., Day 17
  Tumor volume: 148.94 mm^3
[1]; 2.5 mg/kg i.p., Day 21
  Tumor volume: 173.92 mm^3
[1]; 2.5 mg/kg i.p., Day 24
  Tumor volume: 180.83 mm^3
[1]; 2.5 mg/kg i.p., Day 28
  Tumor volume: 178.96 mm^3
[1]; 2.5 mg/kg i.p., Day 31
  Tumor volume: 182.98 mm^3
[1]; 2.5 mg/kg i.p., Day 35
  Tumor volume: 178.69 mm^3
[1]; [4]
  Relative tumor volume (x ± S): 1.60 ± 0.42
  T/C (%): 15.88%
  TGI (%): 84.12%
  Tumor volume (x ± S): 178.69 ± 65.98
[1]; 5 mg/kg i.p., Day 0
  Tumor volume: 103.15 mm^3
[1]; 5 mg/kg i.p., Day 3
  Tumor volume: 160.80 mm^3
[1]; 5 mg/kg i.p., Day 7
  Tumor volume: 167.82 mm^3
[1]; 5 mg/kg i.p., Day 10
  Tumor volume: 120.93 mm^3
[1]; 5 mg/kg i.p., Day 14
  Tumor volume: 97.35 mm^3
[1]; 5 mg/kg i.p., Day 17
  Tumor volume: 90.25 mm^3
[1]; 5 mg/kg i.p., Day 21
  Tumor volume: 106.81 mm^3
[1]; 5 mg/kg i.p., Day 24
  Tumor volume: 115.29 mm^3
[1]; 5 mg/kg i.p., Day 28
  Tumor volume: 110.01 mm^3
[1]; 5 mg/kg i.p., Day 31
  Tumor volume: 102.22 mm^3
[1]; 5 mg/kg i.p., Day 35
  Tumor volume: 85.00 mm^3
[1]; [5]
  Relative tumor volume (x ± S): 0.77 ± 0.18
  T/C (%): 7.62%
  TGI (%): 92.38%
  Tumor volume (x ± S): 85.00 ± 26.32
[1]; 10 mg/kg i.v., Day 0
  Tumor volume: 102.58 mm^3
[1]; 10 mg/kg i.v., Day 3
  Tumor volume: 127.72 mm^3
[1]; 10 mg/kg i.v., Day 7
  Tumor volume: 172.58 mm^3
[1]; 10 mg/kg i.v., Day 10
  Tumor volume: 138.61 mm^3
[1]; 10 mg/kg i.v., Day 14
  Tumor volume: 127.60 mm^3
[1]; 10 mg/kg i.v., Day 17
  Tumor volume: 132.95 mm^3
[1]; 10 mg/kg i.v., Day 21
  Tumor volume: 151.00 mm^3
[1]; 10 mg/kg i.v., Day 24
  Tumor volume: 181.36 mm^3
[1]; 10 mg/kg i.v., Day 28
  Tumor volume: 191.25 mm^3
[1]; 10 mg/kg i.v., Day 31
  Tumor volume: 186.25 mm^3
[1]; 10 mg/kg i.v., Day 35
  Tumor volume: 179.97 mm^3
[1]; [6]
  Relative tumor volume (x ± S): 1.87 ± 0.54
  T/C (%): 18.53%
  TGI (%): 81.47%
  Tumor volume (x ± S): 179.97 ± 51.38
[1]; Compound A 10, 1.25, 2.5, 5 mg/kg, Sorafenib 30 mg/kg
  tolerability / body weight: well tolerated
SNU354; Homo sapiens, SNU-354
  IC50: 962 nM
SNU354; IC50 ratio
  ratio A/B: 1.28
  ratio A/C: 0.63
[2]
  TGI (%): 99.86%
